How the values were obtained:
[1] = biological target: T1, human B1R (Homo sapiens, UniProt P46663); experiment: FLIPR calcium ion flux assay, inhibitory activity against human B1R; type: cell-based; conditions: HEK293 cells stably expressing human B1R; agonist [Lys-des-Arg9]-Bradykinin 4.6 nM (EC80); FLIPR method
T1 construct: host or cells: HEK293
T1 sequence (P46663 1-353): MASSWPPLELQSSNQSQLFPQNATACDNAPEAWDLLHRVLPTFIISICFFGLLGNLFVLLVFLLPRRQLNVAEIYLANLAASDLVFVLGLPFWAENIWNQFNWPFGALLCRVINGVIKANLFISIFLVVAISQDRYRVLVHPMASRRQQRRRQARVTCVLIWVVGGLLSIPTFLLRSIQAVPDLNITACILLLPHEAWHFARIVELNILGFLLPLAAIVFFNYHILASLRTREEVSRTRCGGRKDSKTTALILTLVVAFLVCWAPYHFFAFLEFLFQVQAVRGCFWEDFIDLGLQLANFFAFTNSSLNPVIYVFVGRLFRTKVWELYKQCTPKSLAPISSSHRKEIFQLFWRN
Outline: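 HEK293 cells stably expressing human B1R, loaded with Fluo-4 Direct plus probenecid; compounds 9-point 1:5 series from 30 μM, duplicate, preincubated 10 min. Stimulation with [Lys-des-Arg9]-bradykinin at 4.6 nM final (EC80); peak fluorescence at 538 nm gave IC50.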

[2] = Drug concentration in rat retinas after intraocular injection (HPLC); type: in vivo, Wistar rats; conditions: male, Wistar, rat, retina, other: intraocular injection, 5 μL of 0.5% solution per eye; Day 7 after intraocular injection of 0.5% (5 μL per eye); read-out: retinal drug concentration
Excerpt: 1.1 Experimental aminals: SPF-grade male Wistar rats weighed 180-220 g.
1.2 Drugs and reagents: Compound 71; sodium chloride injection (Shandong Qidu Pharmaceutical Co., Ltd., Batch No.: 3B151014124); acetonitrile (chromatographically pure, TEDIA, USA); methanol (chromatographically pure, SIGMA-ALDRICH product); triethylamine (analytically pure, Hangzhou Gaojing Fine Chemical Co., Ltd.).
1.3 Experimental grouping and administration: according to the sampling time, 33 male Wistar rats were divided into 11 groups (three rats per group) of: (1) control group; (2) 0 h; (3) 2 h; (4) 6 h; (5) 24 h; (6) 48 h; (7) 72 h; (8) 5 d; (9) 7 d; (10) 10 d; (11) 14 d. Three rats in the control group were injected with solvent (sterile normal saline) intraocularly, and the remaining 30 rats were injected with Compound 71 intraocularly at a concentration of 0.5% by using a 5 μL microinjector, and 5 μL of drug was injected per bulbus oculi.
1.4 Sampling and detection index: The retina of the rat in the control group was taken on Day 14 (14 d), and the retina of the remaining 30 rats was taken at the corresponding time points. The retina were frozen in liquid nitrogen, and then subjected to the subsequent HPLC detection.
1.5.1 Chromatographic conditions: The mobile phase was chromatographic grade acetonitrile-water=25-75 (v/v). The flow rate was 0.5 mL/min. The column temperature was 25° C. The UV detection wavelength was 254 nm. The injection volume was 20 μL.
1.5.2 Sample processing and preparation: the sample of the rat retina was taken out from the ultra-low temperature (−80° C.) refrigerator, accurately weighed and placed in a glass homogenizer, and ethyl acetate as an organic solvent pre-cooled in a 4° C. refrigerator was added at a ratio of 100 mL/g. The homogenizer was placed in an ice bath for homogenization. After homogenization, all the homogenate was poured into a 5 mL stoppered centrifuge tube. The centrifugation was performed at a low temperature of 4° C. for 5 min (5000 r/min). All the organic phase as the upper layer was accurately taken out and placed in a glass tube with conical bottom. The remaining residue of retina was extracted with 2 mL ethyl acetate repeatedly once. After centrifugation, the two organic phases were combined. Then, the centrifuge tube with conical bottom was blowed for dryness in a nitrogen flow in a 45° C. water bath. The residue was redissolved with 0.1 mL of chromatographic methanol, vortex mixed for 1 min, and centrifuged for 5 min at a high speed of 18000 r/min. 20 μL of the supernatant was taken, and analyzed in a high-performance liquid chromatography system.
1.5.3 Sample determination: After intraocular injection of 5 μL of 0.5% Compound 71, the retina was taken at different time points to analyze the drug content of the test compound in the retina.
1.5.4 Experimental results and conclusions: According to the retinal drug concentration-time curve, it is in conformity to the non-absorption two-compartment model. According to the pharmacokinetic non-absorption two-compartment model theory, the pharmacokinetic parameters of the drug were calculated.

[3] = system: rat model of diabetic retinopathy; experiment: Rat model of diabetic retinopathy (STZ); type: in vivo, Wistar rats; conditions: for retinal leukocyte stasis, Leukocyte count: Concanavalin A/FITC, 14 days after intravitreal injection, compounds 0.25%, dexamethasone 0.1%; for number of leukocyte stasis in the retina (fluorescent staining, FIG. 8; in words) / retinal vascular penetration in rats (fluorescent staining, FIG. 6; in words): intraocular injection, versus model group
Description: 3.1 Laboratory animals: SPF-grade male Wistar rats, weighed 180-220 g.
3.3 Animal modeling and grouping: After one week of adaptive feeding, 134 male Wistar rats (weighed 220-260 g) were administered 65 mg/kg of STZ by one-time intraperitoneal injection to prepare a rat model of type I diabetic. The rats were fasting but water was allowable overnight for 15 h. The formulated STZ solution was intraperitoneally injected according to body weight. After 1 h, the diet was resumed and blood glucose was measured at 72 h. The successfully modeled diabetic rats (120 rats) were selected for continued feeding, and randomly divided into the following 6 groups according to blood glucose (20 rats per group), plus a group of normal rats with no STZ injected as a negative control group.
3.4 Administration: The rats continued to be fed until blood glucose was measured once before administration. After blood glucose reached the standard, drugs were intravitreally injected, and indexs were subsequently tested after 14 days. Blood glucose was measured once before sampling.
3.5 Evans blue staining method (7 groups, 6 rats per group): Evans blue was intravenously injected. 2 hours later, normal saline was perfused into the left ventricle. The retina was taken to compare between the stained area and the unstained area to detect retinal vascular permeability.
3.6 Retinal leukocyte stasis detection method (7 groups, 6 rats per group): PBS was perfused into the left ventricle for 1 min to remove red blood cells and other substances. Concanavalin A (FITC (Sigma, C7642) was perfused (20 μg/ml in PBS, 5 mg/kg) to mark adherent leukocytes. 4% PFA was perfused for 4 min for fixation. 1% Albumin (Sigma, A6414) (in PBS) was perfused for 1 min, and then PBS was perfused for 2 min. The retina was taken for retinal wholemount. Thereafter, the stasis of leukocytes on the vascular endothelium was observed under a fluorescence microscope. […]

[4] = system: rat model of acute lung injury; experiment: Rat model of LPS-induced acute lung injury; type: in vivo, Wistar rats; design: IL-6 (serum) / IL-6 (homogenate of lung tissue) / IL-6 (bronchoalveolar lavage fluid) / TNF-α (serum) / TNF-α (homogenate of lung tissue) / TNF-α (bronchoalveolar lavage fluid): unit not given here; conditions: ELISA; test drug 30 mg/kg i.p. 2 h before and 1 h after LPS; 12 h after modeling
Description: 1. Experimental aminals: SPF-grade male Wistar rats, weighed 180-220 g, 6-8 weeks old.
3. Establishment of animal model: The rats were adaptively fed for one week. After the animals were anesthetized, 3 mg/kg LPS (B8) was injected intratracheally to prepare the rat model of acute lung injury.
4. […] At 2 hours before modeling (before tracheal injection of LPS), the test drug (30 mg/kg, the vehicle was 0.3% DMSO in saline) was intraperitoneally injected. At 1 hour after modeling, the test drug was administered once again (at the same dose). At 12 hours after modeling, the animals were sacrificed, and the samples were collected for the tests of various indexes. […]
5.2 ELISA method: 5 rats per group. The serum, alveolar lavage fluid, and tissue homogenate of one lung of each of the rats were subjected to ELISA assay to determine the TNF-α and IL-6 levels.

[5] = system: mouse model of ragweed pollen-induced allergic conjunctivitis; experiment: Mouse model of ragweed pollen-induced allergic conjunctivitis; type: in vivo, Balb/c mice
Description: SPF-grade Balb/c mice (half male and half female, 6-8 weeks old) were used as experimental animals. On Day 0 and Day 6, ragweed pollen footpad injection was injected subcutaneously into the footpads of mice for sensitization (65 μl per mouse). On Days 10-14, in the model group, eye drop of ragweed pollen was applied to both eyes of the mice (10 μl per mouse) once a day. The eye drops were applied for 5 consecutive days to trigger local allergic conjunctivitis (Wu B, et al., Frontiers in Immunology, 2021, 12:4754). […] On Day 14, within 30 minutes after the final challenge, the ocular clinical symptoms of the mice were observed under a microscope and scored according to the scoring criteria reported by Magone et al. (MerayoLloves J, et al., J Allergy Clin Immunol (1996) 97(5):1129-40; Magone M T, et al., Clin Immunol Immunopathol (1998) 87(1):75-84), the allergic response of the eyes were observed, including 4 indexes: conjunctival edema, conjunctival congestion, eyelid congestion and edema, and tearing. The scores were recorded as 0-3 points according to the severity (including none, mild, moderate and severe). The left eye of the mouse was taken with the eyelid (keeping the conjunctiva intact), fixed with polyformaldehyde, sectioned in paraffin, Hematoxylin-Eosin stained (HE stained), and toluidine blue stained (for detection of mast cells). Photographs were taken to analyze the inflammatory cell infiltration of the conjunctival tissue, and observe whether the mast cells in the conjunctiva aggregated and whether a phenomenon of degranulation occurred. The expression of allergic indicators IL-4 and IgE in the conjunctival tissue was detected by immunohistochemistry.
The mouse eye, including the eyelids (with intact conjunctiva), was sectioned after deparaffinization, and subjected to antigen retrieval and serum blocking.
Diluted IL-4 or IgE antibodies were added and incubated overnight. After incubation with secondary antibodies, DAB staining was performed, followed by counterstaining with hematoxylin. The slides were then mounted and observed under an […], with photographs taken. Semi-quantitative analysis was conducted using Image-J software. Based on the cumulative optical density and regional area values of each image, the average optical density was calculated to detect the positive expression of IL-4 or IgE.

[6] = immunohistochemistry, dexamethasone 0.1% eye drop

Structure (SMILES)	IC50 [1]	concentration at 7 d [2]	retinal leukocyte stasis, Leukocyte count [3]	number of leukocyte stasis in the retina (fluorescent staining, FIG. 8; in words) [3]	retinal vascular penetration in rats (fluorescent staining, FIG. 6; in words) [3]	IL-6 (bronchoalveolar lavage fluid) [4]	IL-6 (homogenate of lung tissue) [4]	IL-6 (serum) [4]	TNF-α (bronchoalveolar lavage fluid) [4]	TNF-α (homogenate of lung tissue) [4]	TNF-α (serum) [4]	Clinical symptom score ([5]; 0.1% dexamethasone eye drop, twice a day for 14 days, Day 14 within 30 minutes after final challenge)	expression of IL-4 in ocular tissue (average optical density) [5, 6]	expression of IgE in ocular tissue (average optical density) [5, 6]
COc1ccc(-c2ccc(NC(=O)N3CCC(C(F)(F)F)CC3)cc2-c2nn[nH]n2)cc1OC [Compound 2, N-(3′,4′-dimethoxy-2-(2H-tetrazol-5-yl)-[1,1′-biphenyl]-4-yl)-4-(trifluoromethyl)piperidine-1-carboxamide]	148 nM	1540 nM	–	–	–	–	–	–	–	–	–	–	–	–
COc1ccc(-c2c(F)cc(NC(=O)N3CCC(C(C)(C)C)CC3)cc2-c2nn[nH]n2)cc1OC [Compound 11, 4-(tert-butyl)-N-(2-fluoro-3′,4′-dimethoxy-6-(2H-tetrazol-5-yl)-[1,1′-biphenyl]-4-yl)piperidine-1-carboxamide]	14.6 nM	–	7.20 ± 8.44	significantly reduced	significantly reduced	–	–	–	–	–	–	–	–	–
COc1ccc(-c2ccc(NC(=O)N(C)[C@H]3CC[C@H](C(C)(C)C)CC3)cc2-c2nn[nH]n2)cc1OC [Compound 65, 1-((trans)-4-(tert-butyl)cyclohexyl)-3-(3′,4′-dimethoxy-2-(2H-tetrazol-5-yl)-[1,1′-biphenyl]-4-yl)-1-methylurea]	43.5 nM	–	5.14 ± 1.20	significantly reduced	significantly reduced	–	–	–	–	–	–	–	–	–
C[C@@H]1C[C@H]2[C@@H]3CCC4=CC(=O)C=C[C@]4(C)[C@@]3(F)[C@@H](O)C[C@]2(C)[C@@]1(O)C(=O)CO [Dexamethasone, dexamethasone, reference compound]	–	–	4.17 ± 3.21	–	–	115.59 ± 67.57	150.17 ± 100.46	255.58 ± 109.87	13.62 ± 7.33	19.17 ± 7.55	57.26 ± 19.27	4.75 ± 0.51	0.23±0.09	0.53±0.11
